Target: T1, MAGL (Homo sapiens, UniProt Q99685)
T1 sequence (Q99685 1-303): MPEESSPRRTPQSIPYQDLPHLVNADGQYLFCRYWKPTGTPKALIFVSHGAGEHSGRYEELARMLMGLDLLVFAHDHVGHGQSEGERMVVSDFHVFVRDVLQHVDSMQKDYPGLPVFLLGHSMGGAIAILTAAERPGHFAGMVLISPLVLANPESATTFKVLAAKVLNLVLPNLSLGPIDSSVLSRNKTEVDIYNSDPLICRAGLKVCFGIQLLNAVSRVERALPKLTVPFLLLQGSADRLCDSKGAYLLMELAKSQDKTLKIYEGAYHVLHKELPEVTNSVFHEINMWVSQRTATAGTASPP
Test: 2-AG assay: MAGL inhibitory activity by hydrolysis of 2-arachidonoylglycerol to arachidonic acid, followed by mass spectrometry
Type: biochemical
Conditions: 15 min preincubation, 30 min reaction at RT, 8 μM 2-arachidonoylglycerol

| SMILES | IC50 |
| --- | --- |
| N#Cc1cc(CC2CC3(C2)CN(C(=O)N2CC4(CCCC(=O)N4)C2)C3)cnc1C(F)(F)F [Example 272, 5-[[2-(6-oxo-2,5-diazaspiro[3.5]nonane-2-carbonyl)-2-azaspiro[3.3]heptan-6-yl]methyl]-2-(trifluoromethyl)pyridine-3-carbonitrile] | 795 nM |
| O=C1CCCC2(CN(C(=O)N3CC4(CC(Cn5cc(C(F)(F)F)cn5)C4)C3)C2)N1 [Example 274, 2-[6-[[4-(trifluoromethyl)pyrazol-1-yl]methyl]-2-azaspiro[3.3]heptane-2-carbonyl]-2,5-diazaspiro[3.5]nonan-6-one] | 540 nM |
| O=C1CCCC2(CN(C(=O)N3CC4(CC(Cc5cc(C(F)(F)F)n[nH]5)C4)C3)C2)N1 [Example 278, 2-[6-[[3-(trifluoromethyl)-1H-pyrazol-5-y1]methyl]-2-azaspiro[3.3]heptane-2-carbonyl]-2,5-diazaspiro[3.5]nonan-6-one] | 479 nM |
| O=C1CCCC2(CN(C(=O)N3CC4(CC(Cc5cc(C(F)F)n[nH]5)C4)C3)C2)N1 [Example 279, 2-[6-[[3-(difluoromethyl)-1H-pyrazol-5-yl]methyl]-2-azaspiro[3.3]heptane-2-carbonyl]-2,5-diazaspiro[3.5]nonan-6-one] | 1030 nM |
| O=C1CCC2(CN(C(=O)N3CC4(CC(S(=O)(=O)c5cccc(OC(F)(F)F)c5)C4)C3)C2)N1 [Example 280, 2-[6-[3-(trifluoromethoxy)phenyl]sulfonyl-2-azaspiro[3.3]heptane-2-carbonyl]2,5-diazaspiro[3.4]octan-6-one] | 195 nM |

Continued by falling IC50, values first:

| IC50 | SMILES |
| --- | --- |
| 195 nM | Cn1ncc(C(F)(F)F)c1CC1CC2(C1)CN(C(=O)N1CC3(CCCC(=O)N3)C1)C2 [Example 277, 2-[6-[[2-methyl-4-(trifluoromethyl)pyrazol-3-yl]methyl]-2-azaspiro[3.3]heptane-2-carbonyl]-2,5-diazaspiro[3.5]nonan-6-one] |
| 104 nM | Cn1nc(CC2CC3(C2)CN(C(=O)N2CC4(CCCC(=O)N4)C2)C3)cc1C(F)(F)F [Example 275, 2-[6-[[1-methyl-5-(trifluoromethyl)pyrazol-3-yl]methyl]-2-azaspiro[3.3]heptane-2-carbonyl]-2,5-diazaspiro[3.5]nonan-6-one] |
| 92.7 nM | Cn1ncc(CC2CC3(C2)CN(C(=O)N2CC4(CCCC(=O)N4)C2)C3)c1C(F)(F)F [Example 276] |
| 68.2 nM | N#Cc1ccc(CC2CC3(C2)CN(C(=O)N2CC4(CCCC(=O)N4)C2)C3)c(F)c1 [Example 273, 3-fluoro-4-[[2-(6-oxo-2,5-diazaspiro[3.5]nonane-2-carbonyl)-2-azaspiro[3.3]heptan-6-yl]methyl]benzonitrile] |
| 37.2 nM | O=C1CCC2(CN(C(=O)N3CC4(CCC(S(=O)(=O)c5cccc(C(F)(F)F)c5)CC4)C3)C2)N1 [Example 282, 2-[7-[3-(trifluoromethyl)phenyl]sulfonyl-2-azaspiro[3.5]nonane-2-carbonyl]-2,5-diazaspiro[3.4]octan-6-one] |
| 31.6 nM | N#Cc1cc(CC2CC3(C2)CN(C(=O)N2CC4(CCCC(=O)N4)C2)C3)ccc1C(F)(F)F [Example 271, 5-[[2-(6-oxo-2,5-diazaspiro[3.5]nonane-2-carbonyl)-2-azaspiro[3.3]heptan-6-yl]methyl]-2-(trifluoromethyl)benzoni-trile] |
| 6.44 nM | O=C1CCC2(CN(C(=O)N3CC4(CCC(S(=O)(=O)c5ccc(C(F)(F)F)cc5)CC4)C3)C2)N1 [Example 281, 2-[7-[4-(trifluoromethyl)phenyl]sulfonyl-2-azaspiro[3.5]nonane-2-carbonyl]-2,5-diazaspiro[3.4]octan-6-one] |
| 0.62 nM | N=[S@](=O)(c1ccc(CC2CC3(C2)CN(C(=O)N2CC4(CCC(=O)N4)C2)C3)cc1)C(F)(F)F [Example 283, 2-[6-[[4-(trifluoromethylsulfoni-midoyl)phenyl]methyl]-2-azaspiro[3.3]heptane-2-carbonyl]-2,5-diazaspiro[3.4]octan-6-one] |

Source: patent publication US20240383904A1, “HETEROCYCLIC COMPOUNDS” (Hoffmann-La Roche Inc., priority 2021, published 2024)
